Test results from ChEMBL document CHEMBL1201862, “PubChem BioAssay data set” (2004).
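Values below derive from 48-hour exposures of cells grown in 96-well plates, with endpoints linearly interpolated between the two concentrations bracketing the appropriate inhibition level. The concentration for 50% growth inhibition is given as GI50.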 Activity calls are given as the source filed them. No stated cut-off is given here; in the data, active = GI50 up to about 1.1 µM and inactive = higher.

Assays:
Assay in all cases: NCI anticancer screen, dose series, 48 h
[1] = test system: ACHN
[2] = test system: HCC 2998
[3] = test system: HCT-15
[4] = test system: Malme-3M
[5] = test system: NCI-H226
[6] = test system: NCI-H23
[7] = test system: NCI-H460
[8] = test system: NCI-H522
[9] = test system: OVCAR-3
[10] = test system: OVCAR-4
[11] = test system: OVCAR-5
[12] = test system: OVCAR-8
[13] = test system: RPMI-8226
[14] = test system: SF-268
[15] = test system: SK-MEL-28
[16] = test system: SK-OV-3
[17] = test system: SN12C
[18] = test system: SR
[19] = test system: U-251
[20] = test system: UACC-257

Row | SMILES | GI50 [1] | GI50 [2] | GI50 [3] | GI50 [4] | GI50 [5] | GI50 [6] | GI50 [7] | GI50 [8] | GI50 [9] | GI50 [10] | GI50 [11] | GI50 [12] | GI50 [13] | GI50 [14] | GI50 [15] | GI50 [16] | GI50 [17] | GI50 [18] | GI50 [19] | GI50 [20]
1 | CON(C)c1nc(N(C)OC)nc(N(C)OC)n1 | > 10 µM (inactive) | > 10 µM (inactive) | > 10 µM | > 10 µM (inactive) | > 10 µM (inactive) | > 10 µM (inactive) | > 10 µM (inactive) | > 10 µM (inactive) | > 10 µM (inactive) | > 10 µM (inactive) | > 10 µM (inactive) | > 10 µM (inactive) | > 10 µM (inactive) | > 10 µM (inactive) | > 10 µM (inactive) | > 10 µM (inactive) | > 10 µM (inactive) | > 10 µM (inactive) | > 10 µM (inactive) | –
2 | COCCCNc1nc(N)c(C#N)c(C#N)c1C#N | > 10 µM (inactive) | > 10 µM (inactive) | > 10 µM | > 10 µM (inactive) | > 10 µM (inactive) | > 10 µM (inactive) | > 10 µM (inactive) | > 10 µM (inactive) | > 10 µM (inactive) | > 10 µM (inactive) | > 10 µM (inactive) | > 10 µM (inactive) | > 10 µM (inactive) | > 10 µM (inactive) | > 10 µM (inactive) | > 10 µM (inactive) | > 10 µM (inactive) | > 10 µM (inactive) | > 10 µM (inactive) | –
3 | Cc1cn(C2CC(N)C(C(=O)NCC(=O)O)O2)c(=O)[nH]c1=O (centres undefined) | > 100 µM (inactive) | > 100 µM (inactive) | > 100 µM | > 100 µM (inactive) | > 100 µM (inactive) | > 100 µM (inactive) | > 100 µM (inactive) | > 100 µM (inactive) | > 100 µM (inactive) | > 100 µM (inactive) | > 100 µM (inactive) | – | > 100 µM (inactive) | > 100 µM (inactive) | > 100 µM (inactive) | > 100 µM (inactive) | > 100 µM (inactive) | > 100 µM (inactive) | > 100 µM (inactive) | –
4 | COC(=O)C(C(=O)C(=O)Nc1nnc(S)[nH]1)c1csc(-n2nc(-c3ccccc3)cc2-c2ccccc2)n1 (centres undefined) | > 100 µM (inactive) | > 100 µM (inactive) | > 100 µM | > 100 µM (inactive) | > 100 µM (inactive) | > 100 µM (inactive) | > 100 µM (inactive) | > 100 µM (inactive) | > 100 µM (inactive) | > 100 µM (inactive) | > 100 µM (inactive) | > 100 µM (inactive) | > 100 µM (inactive) | > 100 µM (inactive) | – | > 100 µM (inactive) | > 100 µM (inactive) | > 100 µM (inactive) | > 100 µM (inactive) | > 100 µM (inactive)
5 | Cc1cc(C)nc(NS(=O)(=O)c2ccc(NNC(=O)c3cccc4c(=O)c5ccccc5[nH]c34)cc2)n1 | 32.4 µM (inactive) | 44.9 µM (inactive) | 48.8 µM | 49.9 µM (inactive) | 51.1 µM (inactive) | 63 µM (inactive) | 67.6 µM (inactive) | 33.6 µM (inactive) | 37.3 µM (inactive) | 72.3 µM (inactive) | 21.5 µM (inactive) | 83.4 µM (inactive) | 57.5 µM (inactive) | 43.2 µM (inactive) | 29.2 µM (inactive) | 55.5 µM (inactive) | 96.6 µM (inactive) | 37.5 µM (inactive) | 25.2 µM (inactive) | > 100 µM (inactive)
6 | CCN1CCC(O)(C(C(=O)O)c2ccccc2)CC1 (centres undefined) | > 100 µM (inactive) | > 100 µM (inactive) | > 100 µM | > 100 µM (inactive) | > 100 µM (inactive) | > 100 µM (inactive) | > 100 µM (inactive) | > 100 µM (inactive) | > 100 µM (inactive) | > 100 µM (inactive) | > 100 µM (inactive) | > 100 µM (inactive) | > 100 µM (inactive) | > 100 µM (inactive) | > 100 µM (inactive) | > 100 µM (inactive) | – | > 100 µM (inactive) | > 100 µM (inactive) | > 100 µM (inactive)
